These results are taken from patent publication US8455394B2 (priority 2009, dated 2013).

Assay [1] concerns Leptosphaeria nodorum (LEPTNO). The assay can be described thus: In vitro fungitoxicity assay against Leptosphaeria nodorum in copper-minus and copper-plus liquid medium (growth inhibition, light scattering). The class given is cell-based. To be noted: Parastagonospora nodorum; compound 0.05 μg/mL, copper-minus medium, 72 h at 25° C.; read-out: LEPTNO % Inhn. Minus Copper Observed. The procedure: In vitro fungitoxicity assays against Leptosphaeria nodorum (LEPTNO) were conducted using the liquid growth medium described by Coursen and Sisler (American Journal of Botany 1960, 47, 541-549) except that copper micronutrient, normally included as CuSO4, was omitted. The medium, termed “copper-minus”, was prepared by dissolving 10 g glucose, 1.5 g K2HPO4, 2 g KH2PO4 and 1 g (NH4)2SO4 in 1 liter of deionized water and treating the solution with 0.5 g Chelex 100 resin (Bio-Rad Analytical grade, 50-100 mesh, sodium form, cat#142-2822) by stirring at room temperature for 1 h. MgSO4.7H2O (0.5 g) was added, and stirring was continued for a further hour. Trace elements (minus CuSO4), and vitamins described by Coursen and Sisler were added from concentrated stock solutions and the entire medium was sterilized by filtration. Medium containing copper was prepared by adding CuCl2.2H2O to the copper-minus medium at 20 μM. […]
LEPTNO was grown on potato dextrose agar in 9 cm diameter petri dishes for 7 days. […] Microtiter plates were inoculated with 100 μL of this spore suspension and the plates incubated at 25° C. for 72 h before assessing fungal growth by measuring light scattering in a NepheloStar plate reader. Growth inhibition was determined by comparing growth in the presence of test compound with growth in control wells lacking test compound. […]

A further assay relates to Phytophthora capsici. The experiment in a line: In vitro fungitoxicity assay against Phytophthora capsici in copper-minus AS and copper-plus AS medium. The class given is cell-based. To be noted: CuCl2 50 uM without any test compound, across experiments. As for the experimental part: In vitro fungitoxicity assays against Phytophthora capsici were conducted using the asparagine-sucrose (AS) medium described in Canadian Journal of Microbiology 1961, 7, 15-25, except that copper micronutrient, normally included as CuSO4, was omitted. The medium, termed “copper-minus AS”, was prepared by dissolving 2 g asparagine, 0.43 g KH2PO4, 0.3 g K2HPO4, 0.4 mL of a 0.5 mg/mL thiamine-HCl solution and 15 g sucrose in 1 liter of deionized water and treating the solution with 0.5 g Chelex 100 resin (Bio-Rad Analytical grade, 50-100 mesh, sodium form, cat#142-2822) by stirring at room temperature for 1 h. The pH was adjusted to 6.4, then MgSO4.7H2O (100 μg/mL), FeSO4.7H2O (1 μg/mL), CaCl2 (50 μg/mL), ZnSO4.7H2O (1 μg/mL), NaMoO4.2H2O (0.2 μg/mL) and MnCl2.4H2O (0.2 μg/mL) were added and the entire medium was sterilized by filtration. […]
Phytophthora capsici was grown on petri plates, 9 cm in diameter, containing 15 mL V-8 agar, pH 7.0, containing 200 mL V-8 juice, 4 g CaCO3, and 20 g agar per liter. […] Microtiter plates were inoculated with 100 μL of spore suspension and incubated at 25° C. for 48 h before assessing fungal growth by measuring light scattering in a NepheloStar plate reader. Growth inhibition was determined by comparing growth in the presence of test compound with growth in control wells lacking test compound. […]

Regarding `O=C(N/N=C/c1cccc(F)c1O)c1ccccc1` [Compound 1], the inhibition of growth at 0.05 µg/mL in assay [1] was found to be 4.4%. In the case of `O.O.[Cl][Cu][Cl]` [CuCl2, CuCl2.2H2O], the “% Inhn (copper chloride alone; printed in column Minus copper Observed)” value in the assay on Phytophthora capsici came to 4.5 ± 7.9%.
